Assay results reported in patent publication US12582677B2, “Methods for producing retinal tissue and retina-related cell” (SUMITOMO CHEMICAL COMPANY, LIMITED, priority 2011, dated 2026).

What was measured:
Assay type in all cases: cell-based
[1] = system: RAX::GFP knock-in human ES cells; assay: Production of retinal tissue from human ES cell aggregates: GFP-expressing (retinal progenitor) cells by fluorescence microscopy and FACS
Experimental: RAX::GFP knock-in human ES cells (derived from KhES-1) were cultured according to the methods described in “Ueno, M. et al. PNAS 2006”, “Watanabe, K. et al. Nat Biotech 2007” and used for the experiment. As the medium, DMEM/F12 medium (Invitrogen) added with 20% KSR (Knockout Serum Replacement; Invitrogen), 0.1 mM 2-mercaptoethanol, 1 mM pyruvic acid, and 5 to 10 ng/ml bFGF was used. The ES cells were dispersed into single cells by using 0.25% trypsin-EDTA (Invitrogen), and floating-cultured in a serum-free medium (100 μl) at 37° C., 5% CO2 to 9×10^3 cells per well of a non-cell adhesive 96-well culture plate (SUMILON spheroid plate, SUMITOMO BAKELITE CO., LTD.). As the serum-free medium in this case, a serum-free medium obtained by adding 20% KSR, 0.1 mM 2-mercaptoethanol, 1 mM pyruvic acid and 20 μM Y27632 to G-MEM medium was used. During the floating culture, Matrigel in an amount of 1/100 per volume was added from day 2 from the start of the floating culture. Thereafter, fluorescence microscopic observation was regularly performed while continuing the floating culture.
RAX::GFP knock-in human ES cells (derived from KhES-1) were cultured according to the methods described in “Ueno, M. et al. PNAS 2006”, “Watanabe, K. et al. Nat Biotech 2007” and used for the experiment. As the medium, DMEM/F12 medium (Invitrogen) added with 20% KSR (Knockout Serum Replacement; Invitrogen), 0.1 mM 2-mercaptoethanol, 1 mM pyruvic acid, and 5-10 ng/ml bFGF was used. For the production of retinal tissue by floating culture, the ES cells were dissociated into single cells by using 0.25% trypsin-EDTA (Invitrogen), and floating-cultured in a serum-free medium (100 μl) at 37° C., 5% CO2 to 9×10^3 cells per well of a non-cell adhesive 96-well culture plate (SUMILON spheroid plate, SUMITOMO BAKELITE CO., LTD.). As the serum-free medium in this case, a serum-free medium obtained by adding 20% KSR, 0.1 mM 2-mercaptoethanol, 1 mM pyruvic acid, 20 μM Y27632 and a substance inhibiting the Nodal signal pathway (10 μM SB431542) to G-MEM medium was used. During the floating culture, Matrigel in an amount of 1/100 per volume was added from day 2 from the start of the floating culture. Thereafter, the floating culture was continued and fluorescence microscopic observation and confirmation of the proportion of the GFP-expressing cells were performed by FACS on day 18 from the start of the floating culture.
RAX::GFP knock-in human ES cells (derived from KhES-1) were cultured according to the methods described in “Ueno, M. et al. PNAS 2006”, “Watanabe, K. et al. Nat Biotech 2007” and used for the experiment. As the medium, DMEM/F12 medium (Invitrogen) added with 20% KSR (Knockout Serum Replacement; Invitrogen), 0.1 mM 2-mercaptoethanol, 1 mM pyruvic acid, and 5 to 10 ng/ml bFGF was used. For the production of retinal tissue by floating culture, the ES cells were dispersed into single cells by using 0.25% trypsin-EDTA (Invitrogen), and floating-cultured in a serum-free medium (100 μl) at 37° C., 5% CO2 to 9×10^3 cells per well of a non-cell adhesive 96-well culture plate (SUMILON spheroid plate, SUMITOMO BAKELITE CO., LTD.). As the serum-free medium in this case, a serum-free medium obtained by adding 20% KSR, 0.1 mM 2-mercaptoethanol, 1 mM pyruvic acid, 20 μM Y27632 and a substance inhibiting the Wnt signal pathway (3 μM IWR1e) to G-MEM medium was used. During the floating culture, Matrigel in an amount of 1/100 per volume was added from day 2 from the start of the floating culture. Thereafter, the floating culture was continued and fluorescence microscopic observation and confirmation of the proportion of the GFP-expressing cells were performed by FACS on day 18 from the start of the floating culture.
RAX::GFP knock-in human ES cells (derived from KhES-1) were cultured according to the methods described in “Ueno, M. et al. PNAS 2006”, “Watanabe, K. et al. Nat Biotech 2007” and used for the experiment. […]

[2] = system: human ES cell-derived retinal tissue after freeze-thawing; assay: Treatment of human ES cell-derived retinal tissue after freeze-thawing with DAPT: GFP fluorescence, Recoverin and Brn3 immunostaining; settings: tissue freeze-thawed day 33, 10 μM DAPT added day 38
Experimental: RAX::GFP knock-in human ES cells (derived from KhES-1) were cultured according to the methods described in “Ueno, M. et al. PNAS 2006”, “Watanabe, K. et al. Nat Biotech 2007” and used for the experiment. As the medium, DMEM/F12 medium (Invitrogen) added with 20% KSR (Knockout Serum Replacement; Invitrogen), 0.1 mM 2-mercaptoethanol, 1 mM pyruvic acid, and 5 to 10 ng/ml bFGF was used. For the production of retinal tissue by floating culture, the ES cells were dispersed into single cells by using 0.25% trypsin-EDTA (Invitrogen), and floating-cultured in a serum-free medium (100 μl) at 37° C., 5% CO2 to 9×10^3 cells per well of a non-cell adhesive 96-well culture plate (SUMILON spheroid plate, SUMITOMO BAKELITE CO., LTD.). As the serum-free medium in this case, a serum-free medium obtained by adding 20% KSR, 0.1 mM 2-mercaptoethanol, 1 mM pyruvic acid, 20 μM Y27632 and a substance inhibiting the Wnt signal pathway (3 μM IWR1e) to G-MEM medium was used. […] Matrigel was added in an amount of 1/100 per volume from day 2 of the floating culture and floating culture was performed. Fetal calf serum in an amount of 1/10 per volume and a substance acting on the Shh signal pathway (100 nM SAG) were added on day 12 from the start of the floating culture and the floating culture was performed to produce a retinal tissue. The produced retinal tissue on day 33 from the start of the floating culture was freeze-thawed, and a Notch signal action inhibitory substance (10 μM DAPT) was added to the retinal tissue on day 38 from the start of the floating culture. […] The prepared frozen section was immunostained for Recoverin, which is one of the marker genes of photoreceptor, and Brn3, which is one of the marker genes of ganglion cells, and the results were compared between the presence and absence of DAPT-addition.

[3] = system: Crx::GFP knock-in human ES cell-derived retinal tissue; assay: Treatment of human ES cell-derived retinal tissue with DAPT: GFP fluorescence, Recoverin and Brn3 immunostaining; settings: 10 μM DAPT added day 29
Experimental: CrX::GFP knock-in human ES cells (derived from KhES-1) were cultured according to the methods described in “Ueno, M. et al. PNAS 2006”, “Watanabe, K. et al. Nat Biotech 2007” and used for the experiment. As the medium, DMEM/F12 medium (Invitrogen) added with 20% KSR (Knockout Serum Replacement; Invitrogen), 0.1 mM 2-mercaptoethanol, 1 mM pyruvic acid, and 5 to 10 ng/ml bFGF was used. The ES cells were dispersed into single cells by using 0.25% trypsin-EDTA (Invitrogen), and floating-cultured in a serum-free medium (100 μl) at 37° C., 5% CO2 to 9×10^3 cells per well of a non-cell adhesive 96-well culture plate (SUMILON spheroid plate, SUMITOMO BAKELITE CO., LTD.). As the serum-free medium in this case, a serum-free medium obtained by adding 20% KSR, 0.1 mM 2-mercaptoethanol, 1 mM pyruvic acid, 20 μM Y27632 and a substance inhibiting the Wnt signal pathway (3 μM IWR1e) to G-MEM medium was used. Matrigel was added in an amount of 1/100 per volume from day 2 of the floating culture and floating culture was performed. Fetal calf serum in an amount of 1/10 per volume and a substance acting on the Shh signal pathway (100 nM SAG) were added on day 12 of floating culture and the floating culture was performed to produce a retinal tissue. A substance acting on the Notch signal (10 μM DAPT (gamma secretase activity inhibitor)) was added to the retinal tissue on day 29 from the start of the floating culture, observed with a fluorescence microscope on day 41 from the start of the floating culture (day 12 after the addition), and fixed with 4% para-formaldehyde on day 43 from the start of the floating culture (day 14 after the addition), and a frozen section was prepared. The prepared frozen section was immunostained for Recoverin, which is one of the marker genes of photoreceptor, and Brn3, which is one of the marker genes of ganglion cells, and the results were compared between the presence and absence of DAPT-addition.

[4] = system: RAX::GFP knock-in human ES cells; assay: Production of optic-cup-like structure from human ES cell aggregates; settings: 3 μM CHIR99021 and 100 nM SAG together in serum-containing medium from day 15
Experimental: RAX::GFP knock-in human ES cells (derived from KhES-1) were cultured according to the methods described in “Ueno, M. et al. PNAS 2006”, “Watanabe, K. et al. Nat Biotech 2007” and used for the experiment. As the medium, DMEM/F12 medium (Invitrogen) added with 20% KSR (Knockout Serum Replacement; Invitrogen), 0.1 mM 2-mercaptoethanol, 1 mM pyruvic acid, and 5 to 10 ng/ml bFGF was used. For the formation of aggregate by floating culture, the ES cells were dispersed into single cells by using 0.25% trypsin-EDTA (Invitrogen), suspended in a serum-free medium (100 μl) to 9×10^3 cells per well of a non-cell adhesive 96-well culture plate (SUMILON spheroid plate, SUMITOMO BAKELITE CO., LTD.) to allow for rapid formation of aggregates, and floating cultured at 37° C., 5% CO2. As the serum-free medium in this case, a serum-free medium obtained by adding 20% KSR, 0.1 mM 2-mercaptoethanol, 1 mM pyruvic acid, 20 μM Y27632 and a substance inhibiting the Wnt signal pathway (3 μM IWR1e) to G-MEM medium was used. During the floating culture, Matrigel in an amount of 1/100 per volume was added from day 2 from the start of the floating culture. The floating aggregate was transferred to a serum-free medium without a substance inhibiting the Wnt signal pathway on day 12 from the start of the floating culture, fetal calf serum in an amount of 1/10 per volume was added and the aggregate was cultured. […]

[5] = 100 nM SAG and fetal calf serum 1/10 added day 12, with 3 μM IWR1e and Matrigel, day 18

NC(=O)c1ccc(-c2nc(-c3ccc4c(c3)OCO4)c(-c3ccccn3)[nH]2)cc1 [SB431542]
GFP-expressing cells (fluorescence microscopic observation) ([1]; 10 μM SB431542 in serum-free medium, Matrigel 1/100 from day 2): somewhat found

O=C(Nc1cccc2cccnc12)c1ccc(N2C(=O)[C@@H]3[C@H](C2=O)[C@@H]2C=C[C@H]3C2)cc1 [IWR1e]
GFP-expressing cells (fluorescence microscopic observation) ([1]; 3 μM IWR1e in serum-free medium, Matrigel 1/100 from day 2, compared to Comparative Examples 1 and 2): clearly increased
proportion of the GFP-expressing cells (FACS) ([1]; 3 μM IWR1e, Matrigel, no serum (Comparative Example 3), day 18 of floating culture): 3.2%

C[C@H](NC(=O)Cc1cc(F)cc(F)c1)C(=O)N[C@H](C(=O)OC(C)(C)C)c1ccccc1 [DAPT, N-[N-(3,5-difluorophenacetyl)-L-alanyl]-S-phenylglycine t-butyl ester]
Recoverin-positive cells produced (immunostaining of frozen section) ([2]; day 49): about 5 fold
ganglion cells (immunostaining of Brn3) ([2]; day 49): produced
GFP-expressing cells (fluorescence microscope) compared to no DAPT ([2]; observed day 49): markedly produced
ganglion cells (immunostaining of Brn3) ([3]; fixed day 43): increased
increase of Recoverin-positive cells (immunostaining of frozen section) ([3]; fixed day 43): 3- to 5 fold
GFP-expressing cells (fluorescence microscope) compared to no DAPT ([3]; observed day 41): markedly increased

CNC1CCC(N(Cc2cccc(-c3ccncc3)c2)C(=O)c2sc3ccccc3c2Cl)CC1 (stereo not shown) [SAG]
optic-cup-like structure formation on aggregate [4]: a clear optic-cup-like structure was formed
GFP-expressing cells (fluorescence microscopic observation) [1, 5]: a very high number of GFP-expressing cells emerged
proportion of the GFP-expressing cells (FACS) [1, 5]: not less than 70%
increase of proportion of GFP-expressing cells compared to Comparative Example 3 ([1]; Example 2: serum and 100 nM SAG added simultaneously, with 3 μM IWR1e and Matrigel): about 24 fold
